What was measured:
[1] = statement of the introduction; cited from earlier work
[2] = Far UV circular dichroism, TFE polarity titration; assay type: physicochemical; details: aqueous solution, 10% TFE, 100 µg/ml
cells = details: free peptide without transporter; stated, no experiment described; cited from earlier work
[3] = Solubility of the peptides in water and TFE/water; assay type: physicochemical

| Compound | water solubility [1] | aggregation (inferred from poor water solubility and β-structure in CD) [2] | direct cell permeation / transfer across biomembranes (cells) | water solubility (in words) [3] |
| --- | --- | --- | --- | --- |
| C=C(C)[C@@H]1CC[C@]2(C(=O)O)CC[C@]3(C)[C@H](CC[C@@H]4[C@@]5(C)CC[C@H](OC(=O)CC(C)(C)C(=O)O)C(C)(C)[C@@H]5CC[C@]43C)[C@@H]12 [PA-457] | limited water solubility |  |  |  |
| ITFEDLLDYYGP [CAI(Pep1)] | limited water solubility |  |  |  |
| ITFEDLLDYYGPKC [CAI-peptide] |  | oligomeric aggregates are formed | cannot permeate cells directly | water insoluble |
| Cc1ccc(NC(=O)NCCSCc2ccc(CN(C)C)o2)cc1Cl [CAP-1] | limited water solubility |  |  |  |

Reference: PMC2500149 (International Journal of Medical Sciences, 2008)
